“And” between values parts separate entries of the source, which are not always exact repeats. Equal entries are not always repeated. The source made the active and inactive calls.
Experiments:
[1] = RKO cell viability reduction, dose response, CellTiter-Glo luminescence (AID 1117322); assay type: functional
Aminopeptidase N = target: T1, Aminopeptidase N (Plasmodium falciparum FcB1/Columbia, UniProt O96935); experiment: P. falciparum M1AAP inhibitors, biochemical, fluorogenic H-Leu-NHMec substrate, 1536-well (AID 1445); parameters: species or system Plasmodium falciparum 3D7, 3D7
T1 sequence (O96935 whole entry): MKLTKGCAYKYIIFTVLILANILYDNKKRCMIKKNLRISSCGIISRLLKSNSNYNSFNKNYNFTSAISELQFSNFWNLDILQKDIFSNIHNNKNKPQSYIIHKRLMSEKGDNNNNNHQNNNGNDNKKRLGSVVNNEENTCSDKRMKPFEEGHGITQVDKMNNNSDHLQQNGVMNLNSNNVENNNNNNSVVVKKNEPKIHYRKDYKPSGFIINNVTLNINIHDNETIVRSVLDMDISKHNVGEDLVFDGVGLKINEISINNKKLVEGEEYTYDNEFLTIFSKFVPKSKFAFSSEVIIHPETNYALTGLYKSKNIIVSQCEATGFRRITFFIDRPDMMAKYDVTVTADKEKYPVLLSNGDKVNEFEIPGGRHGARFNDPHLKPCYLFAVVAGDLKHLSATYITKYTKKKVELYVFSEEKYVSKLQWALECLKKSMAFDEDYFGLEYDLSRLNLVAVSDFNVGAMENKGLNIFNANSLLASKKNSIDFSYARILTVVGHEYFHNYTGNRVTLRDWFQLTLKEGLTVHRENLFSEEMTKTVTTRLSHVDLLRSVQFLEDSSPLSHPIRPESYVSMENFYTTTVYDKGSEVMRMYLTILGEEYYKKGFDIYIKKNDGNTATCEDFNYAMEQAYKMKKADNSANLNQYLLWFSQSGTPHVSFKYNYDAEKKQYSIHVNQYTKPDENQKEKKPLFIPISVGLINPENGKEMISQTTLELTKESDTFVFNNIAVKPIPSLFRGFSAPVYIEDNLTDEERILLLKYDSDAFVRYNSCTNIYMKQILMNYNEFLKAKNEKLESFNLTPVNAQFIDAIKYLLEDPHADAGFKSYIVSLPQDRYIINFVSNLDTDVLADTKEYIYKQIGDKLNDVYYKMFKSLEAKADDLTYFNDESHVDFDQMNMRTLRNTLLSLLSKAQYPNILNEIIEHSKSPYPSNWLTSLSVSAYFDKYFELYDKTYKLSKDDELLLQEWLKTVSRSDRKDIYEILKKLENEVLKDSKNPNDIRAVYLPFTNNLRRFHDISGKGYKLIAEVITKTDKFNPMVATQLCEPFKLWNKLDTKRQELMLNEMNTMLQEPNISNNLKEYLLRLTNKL

[2] = C. albicans growth with fluconazole, confirmation, fluorescence, retest (AID 2467); assay type: functional, cell-based
[3] = target: T2, Calpain-2 catalytic subunit (Sus scrofa, UniProt P43367); experiment: pig calpain II inhibitor potency, dose response, biochemical, fluorogenic peptide substrate (AID 1420); assay type: functional
T2 sequence (P43367 whole entry): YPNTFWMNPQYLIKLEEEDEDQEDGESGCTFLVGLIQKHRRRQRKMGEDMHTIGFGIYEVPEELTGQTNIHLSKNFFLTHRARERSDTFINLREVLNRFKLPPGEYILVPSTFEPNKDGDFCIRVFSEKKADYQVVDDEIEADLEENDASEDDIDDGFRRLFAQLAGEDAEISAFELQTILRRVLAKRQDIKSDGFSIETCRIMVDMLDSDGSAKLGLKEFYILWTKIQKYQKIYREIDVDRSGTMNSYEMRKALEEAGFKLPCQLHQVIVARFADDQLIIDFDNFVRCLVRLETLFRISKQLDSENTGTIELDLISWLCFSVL

[4] = cytotoxicity in KRAS-transformed pancreatic duct cells, primary screen, cell-based, fluorescence, HTS (AID 431); assay type: functional; conditions: Homo sapiens;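 note: cell line used: HPDE-C7K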
[5] = target: Dual specificity mitogen-activated protein kinase kinase 2 (Homo sapiens, UniProt P36507); experiment: Navigating the Kinome. Panel member name: MAP2K2; assay type: functional
[6] = target: Serine/threonine-protein kinase BRSK1 (Homo sapiens, UniProt Q8TDC3); assay type: functional;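 note: measured within a kinome-wide kinase panel, with the target listed as KIAA1811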
Insulin receptor = Insulin receptor (Homo sapiens, UniProt P06213); assay type: functional;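 note: insulin receptor kinase tested as one member of a kinome-wide kinase panel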
[7] = target: Dual specificity tyrosine-phosphorylation-regulated kinase 4 (Homo sapiens, UniProt Q9NR20); assay type: functional
[8] = target: RAC-alpha serine/threonine-protein kinase (Homo sapiens, UniProt P31749); assay type: functional;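 note: AKT1 affinity measured as one member of a kinome-wide kinase profiling panel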
[9] = target: Tyrosine-protein kinase Fer (Homo sapiens, UniProt P16591); assay type: functional;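 note: FER tested as one member of a kinome panel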
[10] = target: Megakaryocyte-associated tyrosine-protein kinase (Homo sapiens, UniProt P42679); assay type: functional;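 note: affinity measured as one member of a kinase panel (Navigating the Kinome) against MATK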
[11] = target: Homeodomain-interacting protein kinase 2 (Homo sapiens, UniProt Q9H2X6); assay type: functional;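 note: measured within a kinome-wide kinase profiling panel, HIPK2 being one panel member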
[12] = target: Dual specificity mitogen-activated protein kinase kinase 1 (Homo sapiens, UniProt Q02750); experiment: Navigating the Kinome. Panel member name: MAP2K1; assay type: functional
[13] = target: Serine/threonine-protein kinase pim-2 (Homo sapiens, UniProt Q9P1W9); assay type: functional;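 note: value comes from a broad kinase panel profiling study in which PIM2 was one of the panel members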
[14] = target: Cyclin-dependent kinase 9 (Homo sapiens, UniProt P50750); assay type: functional;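 note: value from the CDK9 entry of a kinome-spanning kinase panel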
[15] = target: Cell division cycle 7-related protein kinase (Homo sapiens, UniProt O00311); assay type: functional;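 note: value obtained from a kinome-wide kinase panel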
Ephrin type-A receptor 2 = Ephrin type-A receptor 2 (Homo sapiens, UniProt P29317); assay type: functional;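 note: EPHA2 tested as one member of a kinome-wide kinase panel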
[16] = target: Serine/threonine-protein kinase Nek4 (Homo sapiens, UniProt P51957); assay type: functional
[17] = Luminescence Cell-Based Dose Response HTS to Identify Inhibitors of 5'UTR Stem-Loop Driven Prion Protein mRNA Translation in H4 Neuroglioblastoma Cells. [Related pubchem assays: 1827 (Project Summary), 1813 (Primary HTS)]; assay type: functional

Chain of RAC-alpha serine/threonine-protein kinase (P31749 whole entry): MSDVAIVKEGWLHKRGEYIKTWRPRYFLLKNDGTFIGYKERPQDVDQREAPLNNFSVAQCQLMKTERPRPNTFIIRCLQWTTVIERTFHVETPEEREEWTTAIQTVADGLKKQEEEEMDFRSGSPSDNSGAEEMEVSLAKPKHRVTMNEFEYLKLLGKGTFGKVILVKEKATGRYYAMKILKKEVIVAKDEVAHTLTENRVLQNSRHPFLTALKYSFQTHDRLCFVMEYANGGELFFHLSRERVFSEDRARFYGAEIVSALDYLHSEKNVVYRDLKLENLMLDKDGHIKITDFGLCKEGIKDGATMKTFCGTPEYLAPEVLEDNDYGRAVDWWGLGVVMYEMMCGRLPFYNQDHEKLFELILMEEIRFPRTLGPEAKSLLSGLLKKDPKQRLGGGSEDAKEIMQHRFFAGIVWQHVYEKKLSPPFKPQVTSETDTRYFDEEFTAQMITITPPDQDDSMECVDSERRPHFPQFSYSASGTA
Chain of Serine/threonine-protein kinase BRSK1 (Q8TDC3 whole entry): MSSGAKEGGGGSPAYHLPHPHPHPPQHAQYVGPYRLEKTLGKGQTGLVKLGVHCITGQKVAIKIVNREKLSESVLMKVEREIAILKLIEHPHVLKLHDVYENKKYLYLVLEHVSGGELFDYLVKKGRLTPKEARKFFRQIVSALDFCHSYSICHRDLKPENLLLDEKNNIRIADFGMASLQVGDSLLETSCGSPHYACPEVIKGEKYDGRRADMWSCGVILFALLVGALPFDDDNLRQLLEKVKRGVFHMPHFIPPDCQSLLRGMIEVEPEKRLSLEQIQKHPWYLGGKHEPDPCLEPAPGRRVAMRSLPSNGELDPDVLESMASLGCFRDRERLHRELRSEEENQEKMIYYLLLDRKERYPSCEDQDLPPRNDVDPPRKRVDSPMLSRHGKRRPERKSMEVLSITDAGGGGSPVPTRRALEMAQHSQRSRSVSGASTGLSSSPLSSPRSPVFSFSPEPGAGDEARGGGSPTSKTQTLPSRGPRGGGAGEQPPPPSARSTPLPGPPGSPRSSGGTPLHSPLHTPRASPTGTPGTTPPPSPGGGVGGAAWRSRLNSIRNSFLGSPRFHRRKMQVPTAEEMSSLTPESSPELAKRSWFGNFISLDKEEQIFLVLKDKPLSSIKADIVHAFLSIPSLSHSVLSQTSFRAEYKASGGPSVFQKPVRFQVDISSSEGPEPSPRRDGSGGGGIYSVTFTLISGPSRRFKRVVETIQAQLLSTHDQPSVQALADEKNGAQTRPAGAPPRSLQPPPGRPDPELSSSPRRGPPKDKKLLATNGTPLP
Chain of Cyclin-dependent kinase 9 (P50750 whole entry): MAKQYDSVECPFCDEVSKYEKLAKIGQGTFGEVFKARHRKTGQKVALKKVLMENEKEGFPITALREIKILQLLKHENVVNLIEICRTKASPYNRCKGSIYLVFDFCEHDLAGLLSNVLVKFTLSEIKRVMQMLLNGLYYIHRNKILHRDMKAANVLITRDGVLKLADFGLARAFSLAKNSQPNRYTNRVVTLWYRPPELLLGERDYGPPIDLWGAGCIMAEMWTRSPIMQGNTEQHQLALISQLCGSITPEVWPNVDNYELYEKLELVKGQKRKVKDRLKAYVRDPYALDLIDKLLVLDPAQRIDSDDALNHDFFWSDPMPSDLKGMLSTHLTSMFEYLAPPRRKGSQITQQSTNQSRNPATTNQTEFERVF
Chain of Dual specificity tyrosine-phosphorylation-regulated kinase 4 (Q9NR20 whole entry): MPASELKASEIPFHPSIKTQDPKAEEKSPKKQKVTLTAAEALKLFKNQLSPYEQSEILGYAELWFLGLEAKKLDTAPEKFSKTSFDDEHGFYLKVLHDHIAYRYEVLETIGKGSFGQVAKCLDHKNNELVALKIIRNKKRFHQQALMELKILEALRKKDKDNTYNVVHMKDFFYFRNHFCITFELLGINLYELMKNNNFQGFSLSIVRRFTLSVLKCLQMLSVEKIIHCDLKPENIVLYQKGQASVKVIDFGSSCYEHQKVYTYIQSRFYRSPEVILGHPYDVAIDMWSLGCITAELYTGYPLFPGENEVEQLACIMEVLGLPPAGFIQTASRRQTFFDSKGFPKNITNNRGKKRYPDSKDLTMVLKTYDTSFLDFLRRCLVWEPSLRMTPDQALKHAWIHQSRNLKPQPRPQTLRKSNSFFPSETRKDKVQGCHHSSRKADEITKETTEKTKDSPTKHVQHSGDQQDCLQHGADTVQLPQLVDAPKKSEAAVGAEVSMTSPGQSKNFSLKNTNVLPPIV
Chain of Tyrosine-protein kinase Fer (P16591 whole entry): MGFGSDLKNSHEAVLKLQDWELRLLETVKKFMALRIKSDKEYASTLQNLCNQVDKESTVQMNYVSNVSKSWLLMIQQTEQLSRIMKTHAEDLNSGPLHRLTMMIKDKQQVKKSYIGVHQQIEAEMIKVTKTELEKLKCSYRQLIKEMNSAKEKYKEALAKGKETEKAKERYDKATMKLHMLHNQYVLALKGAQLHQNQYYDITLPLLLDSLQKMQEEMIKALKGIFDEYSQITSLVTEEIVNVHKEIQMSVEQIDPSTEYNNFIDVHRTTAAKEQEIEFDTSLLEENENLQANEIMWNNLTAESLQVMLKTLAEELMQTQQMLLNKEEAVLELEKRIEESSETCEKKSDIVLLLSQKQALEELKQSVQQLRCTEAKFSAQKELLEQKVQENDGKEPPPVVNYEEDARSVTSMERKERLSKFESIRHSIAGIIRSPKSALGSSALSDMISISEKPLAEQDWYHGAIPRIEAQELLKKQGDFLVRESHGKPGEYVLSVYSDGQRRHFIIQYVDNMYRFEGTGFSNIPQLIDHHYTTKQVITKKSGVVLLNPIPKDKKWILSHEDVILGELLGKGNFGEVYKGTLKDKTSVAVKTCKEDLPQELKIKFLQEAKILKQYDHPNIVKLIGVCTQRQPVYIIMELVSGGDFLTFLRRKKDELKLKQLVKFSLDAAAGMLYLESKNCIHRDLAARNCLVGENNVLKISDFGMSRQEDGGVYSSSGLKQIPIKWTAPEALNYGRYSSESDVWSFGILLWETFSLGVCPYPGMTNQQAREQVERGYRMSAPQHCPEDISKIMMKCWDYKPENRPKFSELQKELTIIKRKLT
Chain of Serine/threonine-protein kinase pim-2 (Q9P1W9 whole entry): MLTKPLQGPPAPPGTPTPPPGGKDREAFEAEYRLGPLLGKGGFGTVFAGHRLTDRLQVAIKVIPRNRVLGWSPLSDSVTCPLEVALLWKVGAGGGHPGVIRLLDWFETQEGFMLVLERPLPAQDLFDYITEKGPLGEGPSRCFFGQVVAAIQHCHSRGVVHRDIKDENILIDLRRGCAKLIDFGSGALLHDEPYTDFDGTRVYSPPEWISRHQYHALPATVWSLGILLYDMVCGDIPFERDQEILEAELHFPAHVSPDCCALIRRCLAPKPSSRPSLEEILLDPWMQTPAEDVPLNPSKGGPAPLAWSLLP
Chain of Megakaryocyte-associated tyrosine-protein kinase (P42679 whole entry): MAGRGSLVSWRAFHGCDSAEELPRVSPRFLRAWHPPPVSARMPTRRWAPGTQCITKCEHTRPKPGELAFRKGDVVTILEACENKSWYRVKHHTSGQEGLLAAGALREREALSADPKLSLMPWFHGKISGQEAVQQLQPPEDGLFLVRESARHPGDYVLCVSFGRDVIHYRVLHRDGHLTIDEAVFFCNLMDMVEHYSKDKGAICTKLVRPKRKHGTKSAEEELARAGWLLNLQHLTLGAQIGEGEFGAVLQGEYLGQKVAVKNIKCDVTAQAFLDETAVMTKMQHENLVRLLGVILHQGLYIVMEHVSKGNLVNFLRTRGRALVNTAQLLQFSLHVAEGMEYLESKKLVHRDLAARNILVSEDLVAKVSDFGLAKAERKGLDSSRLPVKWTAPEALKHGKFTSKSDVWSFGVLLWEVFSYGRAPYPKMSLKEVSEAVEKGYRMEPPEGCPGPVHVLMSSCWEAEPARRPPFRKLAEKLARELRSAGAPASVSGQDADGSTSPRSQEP
Chain of Dual specificity mitogen-activated protein kinase kinase 2 (P36507 whole entry): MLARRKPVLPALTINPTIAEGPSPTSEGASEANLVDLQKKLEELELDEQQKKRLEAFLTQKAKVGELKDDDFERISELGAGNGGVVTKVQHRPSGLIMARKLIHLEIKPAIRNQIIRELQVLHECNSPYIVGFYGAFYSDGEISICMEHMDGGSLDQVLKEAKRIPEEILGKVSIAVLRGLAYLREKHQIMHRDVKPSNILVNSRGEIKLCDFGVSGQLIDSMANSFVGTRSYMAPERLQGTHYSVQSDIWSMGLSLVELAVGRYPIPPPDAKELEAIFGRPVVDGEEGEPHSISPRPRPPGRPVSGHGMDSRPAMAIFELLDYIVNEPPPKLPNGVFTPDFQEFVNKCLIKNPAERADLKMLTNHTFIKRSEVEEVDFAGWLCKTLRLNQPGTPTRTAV
Chain of Cell division cycle 7-related protein kinase (O00311 whole entry): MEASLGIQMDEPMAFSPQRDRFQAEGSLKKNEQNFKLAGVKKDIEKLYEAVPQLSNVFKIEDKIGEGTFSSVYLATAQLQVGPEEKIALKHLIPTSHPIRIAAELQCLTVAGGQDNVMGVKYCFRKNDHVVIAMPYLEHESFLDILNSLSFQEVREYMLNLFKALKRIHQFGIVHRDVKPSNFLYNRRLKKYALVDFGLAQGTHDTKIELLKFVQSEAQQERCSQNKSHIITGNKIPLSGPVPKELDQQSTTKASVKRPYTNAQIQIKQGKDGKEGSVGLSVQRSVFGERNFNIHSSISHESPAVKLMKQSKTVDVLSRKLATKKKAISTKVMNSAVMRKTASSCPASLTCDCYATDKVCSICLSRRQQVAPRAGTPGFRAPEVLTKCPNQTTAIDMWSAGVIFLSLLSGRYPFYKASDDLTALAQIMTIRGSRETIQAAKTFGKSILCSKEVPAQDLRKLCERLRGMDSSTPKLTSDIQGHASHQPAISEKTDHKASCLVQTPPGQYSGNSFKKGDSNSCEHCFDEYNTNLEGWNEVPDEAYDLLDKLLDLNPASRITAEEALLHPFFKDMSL

## CCc1oc2ccccc2c1C(=O)c1cc(Br)c(O)c(Br)c1 [BENZBROMARONE]
[1]
  IC50: 0.131 µM (active)
Aminopeptidase N
  IC50: 62.8 µM (active)
[2]
  EC50: 0.059 µM (active)
[3]
  IC50: 7.97 µM (not active) and 4.88 µM (not active)
[4]
  EC50: 5.29 µM (active)

## N#Cc1ccc2[nH]c(O)c(-c3ccc(CN4CCOCC4)cn3)c2c1 [AZD-1080]
[5]
  Ki: > 3.98 µM (inactive)
[6]
  Ki: > 7.94 µM (inactive)
Insulin receptor
  Ki: > 5.01 µM (inactive)
[7]
  Ki: > 7.94 µM (inactive)
[8]
  Ki: > 7.94 µM (inactive)
[9]
  Ki: > 1.58 µM (inactive)
[10]
  Ki: > 2 µM (inactive)
[11]
  Ki: > 3.16 µM (inactive)
[12]
  Ki: > 3.16 µM (inactive)
[13]
  Ki: > 1.58 µM (inactive)
[14]
  Ki: > 1.58 µM (inactive)
[15]
  Ki: > 1.26 µM (inactive)
Ephrin type-A receptor 2
  Ki: > 3.16 µM (inactive)
[16]
  Ki: > 6.31 µM (inactive)

## O=C1C=C(N2CCOCC2)c2ccccc2C1=O
[17]
  EC50: > 120 µM (not active)
